In general, MIC refers to the lowest concentration that inhibits growth of the organism. By IC50 is commonly meant the point on the concentration scale where inhibition reaches its midpoint.

The structures appear in SMILES notation.

One assay has as its system T. b. rhodesiense IL1501. The experiment in a line: Antiprotozoal effect, MIC measurement in HMI-9 culture. In kind it is cell-based. The conditions noted are these: Trypanosoma brucei, RHODESIENSE, 24 h, bloodstream forms, 18 + 6 hours culture. As for the experimental part:
T. b. rhodesiense IL1501, the human infectious protozoan that causes acute symptoms, was used as a Trypanosomatid protozoan. The bloodstream forms of protozoan can be cultured in a HMI-9 culture medium (Hirumi, 1989). The protozoan was always cultured at a temperature of 37° C. in the presence of 5% CO2.
In a microtiter plate (96-well, FALCON 3072), HMI-9 culture medium and HMI-9 culture medium plus glycerol added to make a final concentration of 8.33 mM are separately prepared. 89 μL of the preparation are put into only the first well, and a 60 μL aliquot of each the other wells. 1 μL of a solution of AF or a AF derivative dissolved in DMSO was added to the first well, and was then suspended. A 30 μL aliquot of the suspension was then collected, was transferred to the second well, and was suspended. These operations were repeated in this order to prepare a three-fold dilution series of drug. A 40 μL aliquot of a protozoan culture was added to each well to make a final concentration of 5×10^4 cells/well (a final concentration of glycerol of 5 mM) followed by 18-hours culturing under conditions of 37° C. and 5% CO2. (For EC50 measurement, a 10 μL aliquot of Alamar Blue was added to each well), culturing was carried out under the same conditions for 6 more hours, surviving protozoans were visually observed with a microscope. The concentration at which no motile surviving protozoan was observed was defined as MIC.

For assay [1], the target named is T1, recombinant Trypanosome AOX (TAO) enzyme (Trypanosoma brucei brucei, UniProt Q26710).
T1 construct: made in house; host or cells: Escherichia coli (membrane fraction)
Put plainly: TAO enzyme inhibition (quinol oxidase activity, ubiquinol-1 substrate). The format is biochemical, T. brucei brucei. The conditions noted are these: TAO-expressing E. coli membrane fraction, 25° C., ubiquinol-1, absorbance at 278 nm. As for the experimental part: Escherichia coli membrane fractions that express TAO by a plasmid harboring TAO cDNA cloned from T. brucei brucei (Fukai, Comparative Biochemistry & Physiology, 124, 141-148, 1999) were used as a recombinant Trypanosome AOX (TAO) enzyme. 50 mM Tris-HCl (pH 7.5), TAO-expressing membrane fraction (0.35 ng), and […] of an inhibitor were mixed in a 1 mL cuvette, and the mixture was incubated at 25° C. for 4 minutes. Ubiquinol-1 as a substrate was then added to the mixture to initiated the reaction, and change in absorbance at 278 nm was monitored (Shimadzu UV-3000, molar absorption coefficient ε=15 cm^−1 mM^−1).

Setting [2] is: Glycerol (+), final concentration of glycerol of 5 mM.

T1 sequence (Q26710 whole entry): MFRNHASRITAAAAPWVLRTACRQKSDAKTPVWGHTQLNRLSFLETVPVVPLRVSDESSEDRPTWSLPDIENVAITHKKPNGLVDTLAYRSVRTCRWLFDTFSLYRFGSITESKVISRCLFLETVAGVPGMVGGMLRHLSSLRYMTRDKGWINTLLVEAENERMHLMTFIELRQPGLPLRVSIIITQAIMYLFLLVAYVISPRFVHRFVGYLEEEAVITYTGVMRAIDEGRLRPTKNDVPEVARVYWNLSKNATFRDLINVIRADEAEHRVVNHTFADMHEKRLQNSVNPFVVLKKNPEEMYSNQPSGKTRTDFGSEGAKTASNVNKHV

With `CC(=O)c1c(C)c(Cl)c(O)c(CCCCCCCOC(=O)C(C)(C)C)c1O` [Compound 172-11-OPiv, 7-(3-Acetyl-5-chloro-2,6-dihydroxy-4-methylphenyl)heptyl pivalate], the values for the minimal inhibitory concentration (MIC) with T. b. rhodesiense IL1501 (setting [2]) and in the assay with T. b. rhodesiense IL1501 (Glycerol (−)) were 19 nM and 540 nM, respectively. Moreover, the IC50 in assay [1] turned out to be 8 nM.
With `CC(=O)c1c(C)c(Cl)c(O)c(C/C=C(\C)CC/C=C(\C)COC(=O)C(C)(C)C)c1O` [Compound 175-12-OPiv, (2E,6E)-8-(5-Acetyl-3-chloro-2,6-dihydroxy-4-methylphenyl)-2,6-dimethyl-2,6-octadienyl pivalate], the figures for the minimal inhibitory concentration (MIC) in the assay on T. b. rhodesiense IL1501 (setting [2]) and in the assay on T. b. rhodesiense IL1501 (Glycerol (−)) were 1.4 nM and 10 nM, respectively. Moreover, the IC50 in assay [1] is 0.7 nM.
For `Cc1c(Cl)c(O)c(/C=C/CCCCCOC(=O)C(C)(C)C)c(O)c1C=O` [Compound 200-11-OPiv, (E)-7-(3-Chloro-5-formyl-2,6-dihydroxy-4-methylphenyl)-6-heptenyl pivalate] the same measures were 0.8 nM, 22 nM and 0.53 nM.
Regarding `COC(=O)CCCCCCC/C=C/c1c(O)c(Cl)c(C)c(C=O)c1O` [Compound 200-12-COOMe, (E)-Methyl 10-(3-chloro-5-formyl-2,6-dihydroxy-4-methylphenyl)-10-decenoate], the MIC amounted to 33 nM with T. b. rhodesiense IL1501 (setting [2]) and 120 nM in the assay on T. b. rhodesiense IL1501 (Glycerol (−)). In addition, the IC50 in assay [1] came to 0.5 nM.
On to `Cc1c(Cl)c(O)c(/C=C/CCCCCCOC(=O)C(C)C)c(O)c1C=O` [Compound 200-12-OCOiPr, (E)-8-(3-Chloro-5-formyl-2,6-dihydroxy-4-methylphenyl)-7-octenyl isobutylate], for which the IC50 in assay [1] came out at 0.75 nM.
Take `CC(=O)c1c(C)c(Cl)c(O)c(C/C=C(\C)CC/C=C(\C)C2CC(=O)C(C)(C)O2)c1O` (stereo not shown) [Compound 214, 5-Chloro-2,4-dihydroxy-6-methyl-3-[(2E,6E)-7-(5,5-dimethyl-4-oxotetrahydrohuran-2-yl)-3,7-dimethyl-2,6-heptadienyl]acetophenone]: the IC50 in assay [1] was 0.3 nM.
Take `CCOC(=O)CCCCCCCc1c(O)c(Cl)c(C)c(C=O)c1O` [Compound 215-11-COOEt, Ethyl 8-(3-chloro-5-formyl-2,6-dihydroxy-4-methylphenyl)octanoate]: the MIC is 8.5 nM with T. b. rhodesiense IL1501 (setting [2]) and 48 nM with T. b. rhodesiense IL1501 (Glycerol (−)). The IC50 in assay [1] is 0.5 nM.
Take `Cc1c(Cl)c(O)c(CCCCCCCCCC(=O)C(C)(C)C)c(O)c1C=O` [Compound 215-12-Piv, 3-Chloro-4,6-dihydroxy-5-(11,11-dimethyl-10-oxo-dodecyl)-2-methylbenzaldehyde]: the 50% inhibitory concentration (IC50) in assay [1] came to 0.4 nM.
Take `CCOC(=O)CCCCCCCCCc1c(O)c(Cl)c(C)c(C=O)c1O` [Compound 215-13-COOEt, Ethyl 10-(3-chloro-5-formyl-2,6-dihydroxy-4-methylphenyl)decanoate]: the MIC in the assay with T. b. rhodesiense IL1501 (setting [2]) was determined as 2 nM; with T. b. rhodesiense IL1501 (Glycerol (−)), 24 nM. Moreover, the IC50 in assay [1] is 0.2 nM.
On to `Cc1c(Cl)c(O)c(CCCCCCCCCOC(=O)C(C)C)c(O)c1C=O` [Compound 215-13-OCOiPr, 9-(3-Chloro-5-formyl-2,6-dihydroxy-4-methylphenyl)nonyl isobutylate], for which the IC50 in assay [1] worked out at 0.3 nM.
As for `COC(C)(C)CCC/C(C)=C/Cc1c(O)c(Cl)c(C)c(C=O)c1O` [Compound 231-9-OMe, 3-Chloro-4,6-dihydroxy-5-[(E)-7-methoxy-3,7-dimethyl-2-octeny]-2-methylbenzaldehyde], the IC50 in assay [1] worked out at 0.29 nM.
Take `C/C(=C\Cc1c(O)c(Cl)c(C)c(C=O)c1O)CC/C=C(\C)COC1CCCCO1` (stereo not shown) [Compound 236-13-OTHP, 3-Chloro-5-[(2E,6E)-3,7-dimethyl-8-(tetrahydropyran-2-yloxy)-2,6-octadienyl]-4,6-dihydroxy-2-methylbenzaldehyde]: the IC50 in assay [1] came to 0.2 nM.
As to `Cc1c(Cl)c(O)c(/C=C/CCCCCC2CC(=O)C(C)(C)O2)c(O)c1C=O` (stereo not shown) [Compound 249, 3-Chloro-4,6-dihydroxy-2-methyl-5-[(E)-7-(5,5-dimethyl-4-oxo-tetrahydrofuran-2-yl)-1-heptenyl]benzaldehyde], the MIC with T. b. rhodesiense IL1501 (setting [2]) came out at 18 nM; with T. b. rhodesiense IL1501 (Glycerol (−)) it was 74 nM. The IC50 in assay [1] was found to be 1 nM.
For `CCCCC/C(C)=C/Cc1c(O)c(Cl)c(C)c(C=O)c1O` [Compound 264-8, (E)-3-Chloro-4,6-dihydroxy-2-methyl-5-(3-methyl-2-octenyl)benzaldehyde] the same measures were 0.002 nM, 0.18 nM and 0.06 nM.
Take `C/C(=C\Cc1c(O)c(Cl)c(C)c(C=O)c1O)CCCCOC(=O)C(C)(C)C` [Compound 264-11-OPiv, (5E)-7-(3-Chloro-5-formyl-2,6-dihydroxy-4-methylphenyl)-5-methyl-5-heptenyl pivalate]: the IC50 in assay [1] was 0.22 nM.
Consider `C/C(=C\CC/C=C/Cc1c(O)c(Cl)c(C)c(C=O)c1O)COC(=O)C(C)(C)C` [Compound 278-12-OPiv, (2E,6E)-8-(3-Chloro-5-formyl-2,6-dihydroxy-4-methylphenyl)-2-methyl-2,6-octadienyl pivalate], for which, in assay [1], the IC50 was determined as 0.26 nM.
The same measure, in the same setting: in the case of `Cc1c(Cl)c(O)c(CCCCCCC(C)COC(=O)C(C)(C)C)c(O)c1C=O` (stereo not shown) [Compound 279-12-OPiv, 8-(3-Chloro-5-formyl-2,6-dihydroxy-4-methylphenyl)-2-methyloctyl pivalate] it was 0.41 nM; in that of `CC(=O)c1c(C)c(Cl)c(O)c(C/C=C(\C)CC/C=C(\C)C(C)O)c1O` (stereo not shown) [Compound 286-9-OH, (2E,6E)-3-Chloro-4,6-dihydroxy-2-methyl-5-(8-hydroxy-3′,7′-dimethyl-2′,6′-nonadienyl)acetophenone], 7.1 nM; in that of `C/C(=C\COC(=O)C(C)C)CC/C(C)=C/Cc1c(O)c(Cl)c(C)c(C=O)c1O` [Compound 287-12-OCOiPr, (2E,6E)-8-(3-Chloro-5-formyl-2,6-dihydroxy-4-methylphenyl)-3,6-dimethyl-2,6-octadienyl isobutylate], 0.26 nM.
As for `C/C(=C\COC(=O)C(C)(C)C)CC/C(C)=C/Cc1c(O)c(Cl)c(C)c(C=O)c1O` [Compound 287-12-OPiv, (2E,6E)-8-(3-Chloro-5-formyl-2,6-dihydroxy-4-methylphenyl)-3,6-dimethyl-2,6-octadienyl pivalate], the IC50 in assay [1] worked out at 0.36 nM.
With `Cc1c(Cl)c(O)c(C/C=C/CCCC/C=C/C(=O)C(C)(C)C)c(O)c1C=O` [Compound 288-12-Piv, 3-Chloro-4,6-dihydroxy-5-((E,E)-11,11-dimethyl-10-oxo-2,8-dodecadienyl)-2-methylbenzaldehyde], the concentration for half-maximal inhibition (IC50) in assay [1] stood at 0.74 nM.
Take `C/C(=C\Cc1c(O)c(Cl)c(C)c(C=O)c1O)CC/C=C/COC(=O)C(C)(C)C` [Compound 289-12-OPiv, (2E,6E)-8-(3-Chloro-5-formyl-2,6-dihydroxy-4-methylphenyl)-6-methyl-2,6-octadienyl pivalate]: the IC50 in assay [1] was 0.2 nM.
As for `Cc1c(Cl)c(O)c(CCC(C)CCCCCOC(=O)C(C)(C)C)c(O)c1C=O` (stereo not shown) [Compound 290-12-OPiv, 8-(3-Chloro-5-formyl-2,6-dihydroxy-4-methylphenyl)-6-methyloctyl pivalate], the IC50 in assay [1] was found to be 0.3 nM.
`C/C(=C\Cc1c(O)c(Cl)c(C)c(CO)c1O)CC/C=C(\C)COC(=O)C(C)(C)C` [Compound 503-OPiv, (2E,6E)-8-(3-Chloro-2,6-dihydroxy-5-hydroxymethyl-4-methylphenyl)-2,6-dimethyl-2,6-octadienyl pivalate]: in assay [1], the IC50 is 0.3 nM.

Values taken from patent publication US9440913B2, “Dihydroxybenzene derivatives and antiprotozoal agent comprising same as active ingredient” (NAI INC., priority 2010, dated 2016).
